Source: patent publication US7955816B2, “Design and synthesis of biotinylated probes for N-acyl-ethanolamines” (Universita Degli Studi Di Roma “Tor Vergata”, priority 2006, dated 2011)

Tests used:
[1] = test system: AEA membrane transporter (AMT); assay: AMT assay in HaCaT cells: uptake of the radiolabelled compound as substrate; format: cell-based, human; settings: intact HaCaT cells
Method: (§1) HaCaT cells [Maccarrone et al., 2003], were cultured in Dulbecco's minimal essential supplemented with 10% fetal calf serum and 100 units/mL streptomycin/penicillin at 37° C. in a 5% CO2 humidified atmosphere. Cells were split twice a week at 1:5 ratio using 0.05% trypsin (w/v), 0.02% EDTA (w/v) in phosphate-buffered saline (PBS). These cells were grown in six-well plates (2×10^6 cells/well) and were incubated for 10 min at 37° C. with [^3H]AEA (Perkin-Elmer Life Sciences, Inc.; Boston, Mass.) or [^3H]b-AEA, and were washed three times with cold PBS containing 1% bovine serum albumin. To discriminate noncarrier-mediated from carrier-mediated transport of AEA, control experiments were carried out at 4° C. and the values subtracted from those at 37° C. Then, the cells were solubilized in 1 ml of 0.1 M NaOH and neutralized (50 μl of concentrated HCl), and radioactivity was determined by liquid scintillation counting. Incubations were also carried out with different concentrations of [^3H]AEA or [^3H]b-AEA, as indicated in the figures, to determine the apparent Michaelis-Menten constant (Km) and maximum velocity (Vmax). The effect of different compounds on AEA or b-AEA uptake was determined by adding each substance directly to the incubation medium, at different concentrations. The results are shown in FIG. 2A, Table 1 and Table 2.

[2] = target: T1, fatty acid amide hydrolase (FAAH) (Homo sapiens, UniProt O00519); assay: FAAH activity in HaCaT cell extracts, compound as substrate; format: biochemical; settings: for hydrolysis by FAAH (substrate or not): FIG. 2B
T1 construct: The reaction was initiated by the addition of HaCaT cell extracts; endogenous in cells; host or cells: HaCaT cell extracts
T1 sequence (O00519 1-579): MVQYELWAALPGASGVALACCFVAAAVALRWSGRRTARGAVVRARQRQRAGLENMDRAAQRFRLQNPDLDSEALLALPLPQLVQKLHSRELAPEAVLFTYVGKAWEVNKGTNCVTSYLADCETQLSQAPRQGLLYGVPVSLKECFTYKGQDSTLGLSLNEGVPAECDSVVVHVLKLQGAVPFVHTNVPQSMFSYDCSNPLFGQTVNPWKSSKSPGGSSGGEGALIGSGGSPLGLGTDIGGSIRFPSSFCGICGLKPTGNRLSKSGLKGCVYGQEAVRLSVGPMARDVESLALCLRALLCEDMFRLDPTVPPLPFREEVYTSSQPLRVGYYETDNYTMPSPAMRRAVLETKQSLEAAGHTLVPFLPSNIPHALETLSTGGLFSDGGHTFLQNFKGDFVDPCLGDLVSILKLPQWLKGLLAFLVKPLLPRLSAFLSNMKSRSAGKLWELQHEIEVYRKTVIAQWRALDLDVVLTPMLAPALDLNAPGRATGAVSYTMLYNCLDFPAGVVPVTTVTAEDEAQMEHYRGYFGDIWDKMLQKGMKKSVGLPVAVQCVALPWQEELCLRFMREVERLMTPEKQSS
Method: (§2) The assay of fatty acid amide hydrolase (E.C. 3.5.1.4, arachidonoylethanolamide amidohydrolase; FAAH) was performed by measuring the release of [^3H]AA from [^3H]AEA (68 mCi/mmol) or [^3H]b-AEA (10 mCi/mmol) through reversed phase high performance liquid chromatography (RP-HPLC) and on-line scintillation counting. [^3H]AEA or [^3H]b-AEA was added to hydrolase assay buffer (50 mM Tris.HCl, pH 9.0) at the indicated concentrations. The reaction was initiated by the addition of HaCaT cell extracts, was continued at 37° C. for 15 min, and then was stopped by the addition of methanol/chloroform/water, with vortexing. This mixture was centrifuged at 3000×g for 5 min, the lower organic phase was dried and the pellet was resuspended in 20 μl of methanol and subjected to RP-HPLC analysis for AA quantitation. The separations of [^3H]AEA or [^3H]b-AEA from [^3H]AA were carried out on a C18 (5 μm, 3.0×150 mm) column, with a mobile phase of methanol-water-acetic acid (85:15:0.1, v/v/v), at a flow rate of 0.8 ml/min. The amount [^3H]AA formed were calculated from the corresponding peak areas. The effect of different concentrations of b-AEA on [^3H]AEA hydrolysis was ascertained by adding the “cold” compound directly to the assay buffer. FAAH activity was expressed as pmol [^3H]AA released from [^3H]AEA per min per mg protein. The results are shown in FIG. 2B, Table 1 and Table 2.

HaCaT cells [3] = settings: Maccarrone et al., 2003, cited from earlier work
HaCaT cells [4] = assay: HaCaT cell differentiation (cornified envelope formation); format: cell-based, human; design: dose or concentration left out as unconfirmed; settings: 5 days, FIG. 4
Method: Cell differentiation was induced by treating HaCaT cells with 12-O-tetradecanoylphorbol 13-acetate (TPA; 10 ng/ml) plus calcium chloride (CaCl2; 1.2 mM) for 5 days, as reported [Maccarrone et al., 2003]. AEA and b-AEA (or vehicle in the controls) were added directly to the culture medium at the same time as TPA plus calcium. Cornified envelope (CE), a hallmark of keratinocyte differentiation, was extracted from HaCaT cells (5×10^6/test) by exhaustive boiling and sonication in 2% SDS, 20 mM dithiothreitol, 0.1 M Tris-HCl pH 8.0, and 0.5 mM EDTA. CEs were then purified on Ficoll gradients and recovered as sonicated fragments, free of soluble keratin/filaggrin proteins, after pelleting through Ficoll as previously described [Maccarrone et al., 2003]. CE formation was quantified by spectrophotometry at 600 nm and was normalized to the protein content.

HaCaT cells [5] = assay: Fluorescence microscopy of b-AEA transport in HaCaT cells; format: cell-based, human
Method: HaCaT cells were plated at a density of 6×10^4 cells/ml on collagen-coated (0.5 mg/ml; Sigma, St. Louis, Mo.) glass coverslips (12 mm). Twenty-four hours after plating, cultures were either left untreated (by adding […] biotin EZ-Link Biotin-PEO-Amine, as negative control) or incubated with […] b-AEA for 10 min at 37° C. in a 5% CO2 humidified atmosphere. […] All steps of the immunofluorescence procedure were performed at room temperature. Cells were washed, fixed with 3% paraformaldehyde (Sigma) for 20 min, and then permeabilized with 0.1% Triton X-100 in PBS for 15 min. After a blocking step in Image-iT™ FX signal enhancer (Molecular Probes, Eugene, Oreg.) for 30 min, cells were incubated for 1 h with anti-biotin primary antibody (Molecular Probes, Eugene, Oreg.), diluted 1:50 in Image-iT™ FX signal enhancer. […] N-Piperidino-5-(4-chlorophenyl)-1-(2,4-dichloro-phenyl)-4-methyl-3-pyrazole carboxamide (SR141716), and N-[1(S)-endo-1,3,3-trimethyl-bicyclo[2.2.1]heptan-2-yl]-5-(4-chloro-3-methylphenyl)-1-(4-methyl-benzyl)-pyrazole-3-carboxa-mide (SR144528) were kind gifts from Sanofi-Aventis Recherche (Montpellier, France). OMDM-1 was a kind gift from Dr. S. Marinelli (Experimental Neurology, IRCCS Fondazione Santa Lucia, Rome, Italy).

[6] = target: T1, fatty acid amide hydrolase (FAAH); assay: Inhibition of [3H]AEA hydrolysis by FAAH in HaCaT cell extracts; format: biochemical; settings: at concentrations up to 10 μM
Method: as §2

TRPV1 = target: T2, TRPV1 (Rattus norvegicus, UniProt O35433); assay: [3H]RTX binding in C6 cells membrane fractions; settings: competition with [3H]RTX; read-out: IC50 on TRPV1 receptors
T2 construct: membrane fractions isolated from rat neuroblastoma C6 cells were used; endogenous in cells; host or cells: rat C6 cells, membrane fractions

[7] = test system: AEA membrane transporter (AMT); assay: Inhibition of [3H]AEA uptake by AMT in intact HaCaT cells; format: cell-based, human; settings: 0.5 μM [3H]AEA, read-out: IC50 for reduction of AEA uptake by AMT
Method: as §1

CB1R [8] = target: T3, CB1R (Homo sapiens, UniProt P21554); format: binding; settings: HaCaT membranes, FIG. 2C
T3 construct: endogenous in cells; host or cells: HaCaT cell membrane fractions

NAPE-PLD = target: T4, NAPE-PLD (Homo sapiens, UniProt Q6IQ20); assay: NAPE-PLD activity in HaCaT cell extracts; format: biochemical; settings: at concentrations up to 10 μM
T4 construct: endogenous in cells; host or cells: HaCaT cell extracts
Method: HaCaT cell extracts (100 μg/test) were incubated at 37° C. for 30 min with a clear mixture of [^3H]NArPE (ARC; St. Louis, Mo.) and NArPE (“cold” NArPE was synthesized from AA and phosphatidylethanolamine) at a final specific activity of 6.8 nCi/nmol, in 200 μl of 50 mM Tris-HCl, pH 7.4, containing 0.1% Triton X-100. A mixture of chloroform/methanol (2:1, v/v; 600 μl) was added to stop the reaction. Then, the samples were vortexed and centrifuged at room temperature, and the lower organic phase was dried. The pellet was resuspended in 20 μl of methanol and subjected to RP-HPLC coupled to on-line scintillation counting. The separations were carried out on a C18 (5 μm, 3.0×150 mm) column with a mobile phase of methanol-water-acetic acid (85:15:0.1, v/v/v), at a flow rate of 0.8 ml/min. The amount of [^3H]AEA formed was calculated from the corresponding peak areas. The identity of the peaks was assessed also by UV detection of cold standard, recording absorbance at 204 nm. The effect of b-AEA on NAPE-PLD activity was ascertained by adding different concentrations of the biotin-derivative directly to the assay buffer. NAPE-PLD activity was expressed as pmol [^3H]AEA released from [^3H]NArPE per min per mg protein.

CB1R [9] = target: T5, CB1R (Mus musculus, UniProt P47746); assay: [3H]CP55.940 binding in mouse brain membrane fractions; settings: mouse brain membranes, read-out: IC50 on CB1 receptors
T5 construct: membrane preparations from mouse brain or mouse spleen were used; from tissue; host or cells: mouse brain membrane fractions

CB2R = target: T6, CB2R (Mus musculus, UniProt P47936); assay: [3H]CP55.940 binding in mouse spleen membrane fractions; settings: mouse spleen membranes, read-out: IC50 on CB2 receptors
T6 construct: membrane preparations from mouse brain or mouse spleen were used; from tissue; host or cells: mouse spleen membrane fractions
T6 sequence (P47936 whole entry): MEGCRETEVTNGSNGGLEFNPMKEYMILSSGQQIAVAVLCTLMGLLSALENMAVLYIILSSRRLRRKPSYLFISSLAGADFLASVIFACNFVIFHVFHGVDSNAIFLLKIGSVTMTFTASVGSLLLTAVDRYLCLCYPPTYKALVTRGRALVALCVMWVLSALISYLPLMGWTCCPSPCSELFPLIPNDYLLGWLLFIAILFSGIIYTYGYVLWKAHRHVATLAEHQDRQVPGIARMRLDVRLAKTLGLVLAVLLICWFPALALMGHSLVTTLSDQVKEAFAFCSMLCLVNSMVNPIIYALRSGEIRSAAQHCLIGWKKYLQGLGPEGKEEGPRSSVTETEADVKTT

T3 sequence (P21554 whole entry): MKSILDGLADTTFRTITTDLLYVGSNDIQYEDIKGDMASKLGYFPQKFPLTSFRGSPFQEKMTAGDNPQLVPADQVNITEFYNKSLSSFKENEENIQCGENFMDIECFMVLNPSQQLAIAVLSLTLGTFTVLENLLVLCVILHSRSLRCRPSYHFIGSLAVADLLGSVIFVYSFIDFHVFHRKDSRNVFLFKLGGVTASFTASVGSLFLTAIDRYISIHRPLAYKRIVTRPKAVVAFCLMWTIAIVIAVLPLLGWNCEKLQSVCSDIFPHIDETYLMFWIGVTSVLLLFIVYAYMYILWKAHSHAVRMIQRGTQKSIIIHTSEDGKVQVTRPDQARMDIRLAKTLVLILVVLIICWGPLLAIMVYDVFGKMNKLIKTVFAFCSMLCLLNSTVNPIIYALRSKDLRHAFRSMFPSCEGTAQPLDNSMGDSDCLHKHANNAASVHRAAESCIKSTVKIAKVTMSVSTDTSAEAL
T5 sequence (P47746 whole entry): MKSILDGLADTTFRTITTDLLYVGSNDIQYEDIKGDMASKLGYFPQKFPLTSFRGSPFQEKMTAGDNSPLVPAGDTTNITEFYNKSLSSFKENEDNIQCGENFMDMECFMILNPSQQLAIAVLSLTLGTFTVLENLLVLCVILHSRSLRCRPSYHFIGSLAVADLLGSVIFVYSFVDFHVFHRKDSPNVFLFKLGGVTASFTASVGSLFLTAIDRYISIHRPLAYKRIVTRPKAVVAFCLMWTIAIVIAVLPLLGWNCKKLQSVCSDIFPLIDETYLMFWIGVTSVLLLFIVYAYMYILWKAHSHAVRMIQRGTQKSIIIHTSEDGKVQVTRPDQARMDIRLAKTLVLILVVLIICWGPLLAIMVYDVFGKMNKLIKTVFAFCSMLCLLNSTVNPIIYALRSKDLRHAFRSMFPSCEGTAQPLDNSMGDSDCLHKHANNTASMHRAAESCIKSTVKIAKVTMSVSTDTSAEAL
T4 sequence (Q6IQ20 whole entry): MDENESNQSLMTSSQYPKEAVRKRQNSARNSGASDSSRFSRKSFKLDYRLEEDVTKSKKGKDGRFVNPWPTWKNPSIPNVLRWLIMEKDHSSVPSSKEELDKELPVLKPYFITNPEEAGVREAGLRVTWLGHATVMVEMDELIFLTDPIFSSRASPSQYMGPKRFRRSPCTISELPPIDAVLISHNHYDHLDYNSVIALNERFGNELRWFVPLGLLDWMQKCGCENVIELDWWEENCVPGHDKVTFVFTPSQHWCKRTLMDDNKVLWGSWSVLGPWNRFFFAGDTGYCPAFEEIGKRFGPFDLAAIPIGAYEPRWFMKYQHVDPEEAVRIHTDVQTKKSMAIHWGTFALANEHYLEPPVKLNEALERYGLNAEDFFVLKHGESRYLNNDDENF
T2 sequence (O35433 whole entry): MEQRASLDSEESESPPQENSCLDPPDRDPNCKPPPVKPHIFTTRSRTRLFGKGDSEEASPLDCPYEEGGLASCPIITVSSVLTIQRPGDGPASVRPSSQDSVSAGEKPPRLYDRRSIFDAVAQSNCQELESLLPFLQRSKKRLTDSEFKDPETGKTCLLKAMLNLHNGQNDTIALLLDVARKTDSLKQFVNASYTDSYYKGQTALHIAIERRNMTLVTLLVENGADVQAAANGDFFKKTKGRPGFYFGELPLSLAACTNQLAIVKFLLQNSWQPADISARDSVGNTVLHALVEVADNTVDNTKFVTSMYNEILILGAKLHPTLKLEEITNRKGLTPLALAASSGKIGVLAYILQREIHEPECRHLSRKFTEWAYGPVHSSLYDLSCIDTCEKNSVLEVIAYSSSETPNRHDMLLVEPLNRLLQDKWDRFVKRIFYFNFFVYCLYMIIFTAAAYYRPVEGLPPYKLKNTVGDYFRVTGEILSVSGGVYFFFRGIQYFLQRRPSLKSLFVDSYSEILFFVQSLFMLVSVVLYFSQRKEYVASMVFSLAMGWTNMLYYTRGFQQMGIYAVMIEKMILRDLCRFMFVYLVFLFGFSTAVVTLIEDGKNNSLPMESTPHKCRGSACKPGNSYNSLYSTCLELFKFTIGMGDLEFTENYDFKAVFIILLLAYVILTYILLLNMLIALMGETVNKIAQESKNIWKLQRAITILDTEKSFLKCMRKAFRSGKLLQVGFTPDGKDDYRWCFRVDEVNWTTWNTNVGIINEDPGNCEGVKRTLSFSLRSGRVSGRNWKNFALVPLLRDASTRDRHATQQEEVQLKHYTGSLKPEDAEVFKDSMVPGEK

## CCCCC/C=C\C/C=C\C/C=C\C/C=C\CCCC(=O)NCCO [AEA, N-arachidonoylethanolamine]
[1]
  AMT Vmax: 124 ± 8 pmol/min per mg protein
  Km: 0.353 ± 0.06 µM
[2]
  hydrolysis by FAAH (substrate or not): hydrolyzed in a concentration-dependent manner
[2]; compound as substrate
  FAAH Vmax: 385 ± 25 pmol/min per mg protein
HaCaT cells [3]; maximum effect at 1 μM
  effect on CE formation in HaCaT cells: dose-dependently reduces CE formation
HaCaT cells [4]
  effect on HaCaT cell differentiation (CE formation induced by TPA+calcium): blocked

## CCCCCCCC/C=C\CCCCCCCC(=O)N[C@H](CO)Cc1ccc(O)cc1 [OMDM-1]
HaCaT cells [5]; 5 μM, added 5 min before probe
  effect on b-AEA immunostaining (uptake) of HaCaT cells: remarkable decrease of immunostaining

## Cc1c(C(=O)NN2CCCCC2)nn(-c2ccc(Cl)cc2Cl)c1-c1ccc(Cl)cc1 [SR141716, N-Piperidino-5-(4-chlorophenyl)-1-(2,4-dichloro-phenyl)-4-methyl-3-pyrazole carboxamide]
HaCaT cells [3]; 0.1 μM
  reversal of the AEA effect on CE formation: fully reversed

## NC(=O)c1cccc(-c2cccc(OC(=O)NC3CCCCC3)c2)c1 [URB597]
HaCaT cells [5]; 1 μM, added 5 min before probe
  effect on uptake and intracellular trafficking of b-AEA in HaCaT cells: did not affect

## CCCCC/C=C\C/C=C\C/C=C\C/C=C\CCCC(=O)NCCOCCOCCNC(=O)CCCC[C@@H]1SC[C@@H]2NC(=O)N[C@@H]21 [b-AEA, (+)-N-arachidonoyl-biotinyl-3,6-dioxaoctanediamine]
[1]
  AMT Vmax: 116 ± 10 pmol/min per mg protein
  Km: 0.421 ± 0.088 µM
[1]; listed as [^3H]b-AEA
  AMT Vmax: 116 ±10 pmol/min per mg protein
[6]
  effect on FAAH activity of HaCaT cells: does not affect
[2]
  hydrolysis by FAAH (substrate or not): not a substrate for FAAH
TRPV1
  IC50: > 10 µM
[7]
  IC50: 0.5 ± 0.1 µM
CB1R [8]
  binding to CB1 receptors of HaCaT cells: did not bind
NAPE-PLD
  effect on NAPE-PLD activity of HaCaT cells: does not affect
CB1R [9]
  IC50: > 10 µM
HaCaT cells [5]; 5 M per test, FIG. 3
  uptake by HaCaT cells seen by immunofluorescence: cells quickly take up b-AEA
CB2R
  IC50: > 10 µM
HaCaT cells [4]
  effect on HaCaT cell differentiation (CE formation induced by TPA+calcium): ineffective
